The target of the assay is T1, VAV1 (Homo sapiens, UniProt P15498+Q96SW2).
T1 construct: A heterozygous VAV1 C-terminal HiBiT knock-in pool was generated at Monte Rosa Therapeutics from a clonal Jurkat cell; endogenous in cells; host or cells: Jurkat clone stably expressing LgBiT, homozygous GSPT1-G575N; heterozygous VAV1-HiBiT knock-in pool
The assay can be described thus: VAV1 degradation activity, VAV1-HiBiT knock-in Jurkat luminescence assay (Example A, Table 1). Conditions: VAV1-HiBiT knock-in Jurkat cells, luminescence read at 6 and 24 hours; for Dmax: Jurkat. It counts as cell-based. The method, boiled down:
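Luminescence was measured at 6 and 24 h after adding compound (10 μM stock) to VAV1-HiBiT knock-in Jurkat cells, which had been pre-incubated ~16 h at 37° C. in RPMI/10% FBS containing Endurazine. EC50 values came from control-normalised responses fitted to a 3-parameter logistic model with hillslope fixed at 1.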
A general note: HiBiT is a short tag that completes a luciferase, so light tracks the accessible tagged protein.

The mark [1] stands for this setting: read-out: VAV1 DC50 (nM), class.

Read-outs that look alike come from different tables or passages of the source.

For orientation: Dmax means the greatest extent of degradation seen. What is called DC50 is the concentration at which degradation of the target reaches its halfway point. As for `CN1CCCN(c2ccc(-c3cccc(C4CCC(=O)NC4=O)c3Cl)cn2)C1=O` (stereo not shown) [Compound 435, 3-(2-chloro-3-(6-(3-methyl-2-oxotetrahydropyrimidin-1(2H)-yl)pyridin-3-yl)phenyl)piperidine-2,6-dione], the maximal degradation (Dmax) is 70.8% (read-out: VAV1 Dmax %) and 60 to 90% (read-out: VAV1 Dmax %, class). For the same compound, the DC50 reads like this: (read-out: VAV1 DC50) 330 nM; under setting [1], 100 to 1000 nM.

Turning to `CN1CCCN(c2ccc(-c3cccc(C4CCC(=O)NC4=O)c3Cl)cc2F)C1=O` (stereo not shown) [Compound 436, 3-(2-chloro-3′-fluoro-4′-(3-methyl-2-oxotetrahydropyrimidin-1(2H)-yl)-[1,1′-biphenyl]-3-yl)piperidine-2,6-dione], the Dmax (read-out: VAV1 Dmax %) worked out at 96% and the Dmax (read-out: VAV1 Dmax %, class) was more than 90%. In addition, the DC50 (read-out: VAV1 DC50) was found to be 8.75 nM and the DC50 under setting [1] is not above 100 nM.

Take `Cc1ccnc(Cc2ccc(-c3cccc(C4CCC(=O)NC4=O)c3Cl)cc2)n1` (stereo not shown) [Compound 437, 3-(2-chloro-4′-((4-methylpyrimidin-2-yl)methyl)-[1,1′-biphenyl]-3-yl)piperidine-2,6-dione]: the Dmax (read-out: VAV1 Dmax %) turned out to be 96.5% and the Dmax (read-out: VAV1 Dmax %, class) was more than 90%. Besides, the DC50 runs as follows: (read-out: VAV1 DC50) 5.92 nM; under setting [1], not above 100 nM.

With `O=C1CCC(c2cccc(-c3ccc(S(=O)(=O)N4CCCC4)cc3)c2Cl)C(=O)N1` (stereo not shown) [Compound 438, 3-(2-chloro-4′-(pyrrolidin-1-ylsulfonyl)-[1,1′-biphenyl]-3-yl) piperidine-2,6-dione], the Dmax (read-out: VAV1 Dmax %) was 90.5% and the Dmax (read-out: VAV1 Dmax %, class) was more than 90%. Moreover, the DC50 is, setting by setting: (read-out: VAV1 DC50) 91.7 nM; under setting [1], not above 100 nM.

Take `CN1Cc2cccc(-c3ccc(-c4cccc(C5CCC(=O)NC5=O)c4Cl)cc3)c2C1=O` (stereo not shown) [Compound 439, 3-(2-chloro-4′-(2-methyl-3-oxoisoindolin-4-yl)-[1,1′-biphenyl]-3-yl)piperidine-2,6-dione]: the Dmax (read-out: VAV1 Dmax %) came to 89.3% and the Dmax (read-out: VAV1 Dmax %, class) was 60 to 90%. Also, the DC50 (read-out: VAV1 DC50) worked out at 4.48 nM and the DC50 under setting [1] is not above 100 nM.

As for `CC1(Cc2ccc(-c3cccc(C4CCC(=O)NC4=O)c3Cl)cc2)COC1` (stereo not shown) [Compound 440, 3-(2-chloro-4′-((3-methyloxetan-3-yl)methyl)-[1,1′-biphenyl]-3-yl)piperidine-2,6-dione], the Dmax runs as follows: (read-out: VAV1 Dmax %) 94.3%; (read-out: VAV1 Dmax %, class) more than 90%. Also, the DC50 was 21.7 nM (read-out: VAV1 DC50) and not above 100 nM under setting [1].

`C[C@@H]1COCC(=O)N1c1ccc(-c2cccc(C3CCC(=O)NC3=O)c2Cl)cc1` (stereo partly drawn) [Compound 441, 3-(2-chloro-4′-((R)-3-methyl-5-oxomorpholino)-[1,1′-biphenyl]-3-yl)piperidine-2,6-dione]: the Dmax is 90.5% (read-out: VAV1 Dmax %) and more than 90% (read-out: VAV1 Dmax %, class). The DC50 is, setting by setting: (read-out: VAV1 DC50) 14.2 nM; under setting [1], not above 100 nM.

For the compound `O=C1CCC(c2cccc(-c3ccc(Cc4cocn4)cc3)c2Cl)C(=O)N1` (stereo not shown) [Compound 442, 3-(2-chloro-4′-(oxazol-4-ylmethyl)-[1,1′-biphenyl]-3-yl)piperidine-2,6-dione], the Dmax runs as follows: (read-out: VAV1 Dmax %) 95.8%; (read-out: VAV1 Dmax %, class) more than 90%. Further, the DC50 (read-out: VAV1 DC50) amounted to 34.5 nM and the DC50 under setting [1] was not above 100 nM.

`O=C1CCC(c2cccc(-c3ccc(-n4c(C(F)(F)F)cccc4=O)cc3)c2Cl)C(=O)N1` (stereo not shown) [Compound 443, 3-(2-chloro-4′-(2-oxo-6-(trifluoromethyl)pyridin-1(2H)-yl)-[1,1′-biphenyl]-3-yl)piperidine-2,6-dione]: the Dmax is, setting by setting: (read-out: VAV1 Dmax %) 99.3%; (read-out: VAV1 Dmax %, class) more than 90%. The DC50 reads like this: (read-out: VAV1 DC50) 2.27 nM; under setting [1], not above 100 nM.

In the case of `O=C1CCC(c2cccc(-c3ccc(-n4cccc(CC(F)F)c4=O)cc3)c2Cl)C(=O)N1` (stereo not shown) [Compound 444, 3-(2-chloro-4′-(3-(2,2-difluoroethyl)-2-oxopyridin-1(2H)-yl)-[1,1′-biphenyl]-3-yl)piperidine-2,6-dione], the Dmax reads like this: (read-out: VAV1 Dmax %) 97.7%; (read-out: VAV1 Dmax %, class) more than 90%. In addition, the half-maximal degradation concentration (DC50) (read-out: VAV1 DC50) worked out at 7.1 nM and the DC50 under setting [1] was not above 100 nM.

(Values after US12257247B2 (Monte Rosa Therapeutics AG, priority 2023, dated 2025).)
